# Measurements taken from patent publication US12275721B2, “Indazole carboxamides as kinase inhibitors” (BRISTOL-MYERS SQUIBB COMPANY, priority 2019, dated 2025).
# Columns and labels:
# [1] = target: T1, His-GST-TVMV-hRIPK1(1-324) (Homo sapiens, UniProt Q13546); assay: RIPK1 HTRF Binding Assay; settings: HTRF probe displacement, 1 h at rt
# T1 construct: 1 nM His-GST-TVMV-hRIPK1(1-324) in FRET Buffer; made in house; host or cells: Spodoptera frugiperda (Sf9) insect cells, baculovirus (Bac-to-Bac)
# T1 sequence (Q13546 1-324): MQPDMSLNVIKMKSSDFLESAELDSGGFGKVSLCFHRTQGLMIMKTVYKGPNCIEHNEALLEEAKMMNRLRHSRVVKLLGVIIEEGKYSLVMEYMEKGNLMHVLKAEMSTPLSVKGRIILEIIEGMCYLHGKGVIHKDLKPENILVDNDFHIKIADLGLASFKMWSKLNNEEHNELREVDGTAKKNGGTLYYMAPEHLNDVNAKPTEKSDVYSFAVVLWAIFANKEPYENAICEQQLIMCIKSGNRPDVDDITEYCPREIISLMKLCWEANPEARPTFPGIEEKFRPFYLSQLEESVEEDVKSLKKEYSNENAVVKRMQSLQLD
# Method: A solution was prepared containing 0.2 nM Anti GST-Tb (Cisbio, 61GSTTLB), 90.6 nM probe and 1 nM His-GST-TVMV-hRIPK1(1-324) in FRET Buffer (20 mM HEPES, 10 mM MgCl2, 0.015% Brij-35, 4 mM DTT, 0.05 mg/mL BSA). Using Formulatrix Tempest, the detection antibody/enzyme/probe solution ([…]) was dispensed into wells of a 1536 plate (Black Low Binding Polystyrene 1536 Plate (Corning, 3724)) containing 10 nL of compounds of interest at appropriate concentration in DMSO. The plate was incubated at rt for 1 h. FRET was measured using the EnVision plate reader (Excitation: 340 nm, Emission: 520 nm/[…]). Total signal (0% inhibition) was calculated from wells containing 10 nL DMSO only.
# Cloning and Baculovirus Expression of RIPK1 Construct
# The coding region of human RIPK1(1-324) flanked by NdeI site at 5′ end and stop codon TGA and XhoI site at 3′ end was codon optimized and gene synthesized at GenScript USA Inc. (Piscataway, NJ) and subcloned into a modified pFastBac1 vector (Invitrogen, Carlsbad, CA) with N-terminal His-GST-TVMV tag, to generate His-GST TVMV-hRIPK1(1-324)-pFB. The fidelity of the synthetic fragment was confirmed by sequencing. Baculovirus was generated for the construct using the Bac-to-Bac baculovirus expression system (Invitrogen) according to the manufacturer's protocol. Briefly, recombinant bacmid was isolated from transformed DH10Bac E. coli competent cells 20 (Invitrogen) and used to transfect Spodoptera frugiperda (Sf9) insect cells (Invitrogen). Baculovirus was harvested 72 hours post transfection and a virus stock was prepared by infecting fresh Sf9 cells at a 1/1000 (v/v) ratio for 66 hours. For large scale protein production, Sf9 cells (Expression System, Davis, CA) grown in ESF921 insect medium (Expression System) at 2×10^6 cells/ml were infected with virus stock at a 1/100 (v/v) ratio for 66 hours. The production was carried out either at a 10 L scale in a 22 L cellbag (GE Healthcare Bioscience, Pittsburgh, PA) or at a 20 L scale in a 50 L cellbag using WAVE-Bioreactor System 20/50 (GE Healthcare Bioscience). The infected cells were harvested by centrifugation at 2000 rpm for 20 min at 4° C. in a SORVALL® RC12BP centrifuge. The cell pellets was stored at −70° C. before protein was purified.
# Purification of His-GST-TVMV-hRIPK1(1-324)
# RIPK1 containing cell paste was resuspended in 50 mM Tris pH 7.5, 150 mM NaCl, 10 mM imidazole, 5% glycerol, 5 mM MgSO4, 1 mM TCEP, 25 U/ml Benzonase, and Complete Protease Inhibitor tablets (1/50 ml, Roche Diagnostics, Indianapolis, IN). The cells were lysed by nitrogen cavitation using an unstirred pressure vessel @ 525 PSI (Parr Instrument Company, Moline, IL). The suspension was clarified by centrifugation at 136,000×g for 40 min, at 4° C. The lysate was decanted from the pellet and passed through a 5 ml NiNTA Superflow cartridge (Qiagen, Valencia, CA) using an AKTA Pure (GE Healthcare). Column was eluted with 10 CV linear gradient into 50 mM Tris 7.5, 150 mM NaCl, 500 mM imidazole, 5% glycerol, 1 mM TCEP. Peak fractions were pooled and loaded directly onto 5 ml GSTrap 4B column (GE Healthcare). Column was washed with 50 mM Tris 7.0, 150 mM NaCl, […], 1 mM DTT and eluted in 10 CV linear gradient into 50 mM Tris 8.0, 150 mM NaCl, 20 mM reduced glutathione, 50% glycerol, 1 mM DTT. Fractions identified by SDS-PAGE as containing RIPK1 were pooled and concentrated using 30 kDa MWCO spin concentrators (Amicon Ultra-15, Millipore, Billerica, MA) and loaded onto a HiLoad 26/600 Superdex 200 column (GE Healthcare) equilibrated in 25 mM Tris 7.5, 150 mM NaCl, 2 mM TCEP, […]. The RTPK1 protein eluted as a dimer off the SEC column. The yield was ˜8 mg/L with a purity […] as determined by Coomassie stain SDS-PAGE gel analysis. […] Protein was aliquoted and stored at −80° C. Using these assays, the IC50 values of the following compounds were determined.
# [2] = test system: MLKL phosphorylation in HT29-L23 human colorectal adenocarcinoma cells; assay: MLKL Phosphorylation High-Content Assay; format: cell-based; settings: Homo sapiens, necroptosis induced with TNFα, SMAC mimetic and Z-VAD, 6 h, read-out: pMLKL (IC50)
# Method: MLKL Phosphorylation High-Content Assay
# HT29-L23 human colorectal adenocarcinoma cells were maintained in RPMI 1640 medium containing 10% heat-inactivated FBS, 1% Penicillin-Streptomycin and 10 mM HEPES. Cells were seeded at 2,000 cells/well in 384 well tissue culture-treated microplates (Greiner #781090-3B) and incubated at 37° C. (5% CO2/95% O2) for 2 d. On the day of the assay, the cells were treated with test compounds at final concentrations of 6.25 to 0.106 μM for 30 min at 37° C. (5% CO2/95% O2). Necroptopsis was induced using a mixture of human TNFα (35 ng/mL) (Peprotech #300-01A), SMAC mimetic (from US 2015/0322111 A1) (700 nM) and Z-VAD (140 nM) (BD pharmingen #51-6936). Following 6 h incubation at 37° C. (5% CO2/95% O2), the cells were fixed with 4% formaldehyde (ACROS 11969-0010) for 15 min at rt, then permeabilized with phosphate buffered saline (PBS) containing 0.2% Triton-X-100 for 10 min. MLKL phosphorylation was detected using anti-MLKL (phospho S358) antibody (Abcam #ab187091) (1:1000 dilution in Blocking Buffer [PBS supplemented with 0.1% BSA]) with ON incubation at 4° C. After washing three times in PBS, goat anti-rabbit Alexa-488 (1:1000 dilution) (Life Technologies, A1 1008) and Hoechst 33342 (Life Technologies, H3570) (1:2000 dilution) in Blocking Buffer were added for 1 h at rt. Following another three cycles of washes in PBS, the microplates were sealed, and cellular images were acquired in the Cellomics ArrayScan VTI high-content imager equipped with an X1 camera. Fluorescent images were taken using a 10× objective and the 386-23 BGRFRN_BGRFRN and 485-20 BGRFRN_BGRFRN filter sets, for nuclei and MLKL phosphorylation, respectively. The image sets were analyzed using the Compartmental Analysis Bioapplication software (Cellomics). The level of MLKL phosphorylation was quantified as MEAN_CircRingAvglntenRatio. The maximal inhibitory response was defined by the activity induced by Necls (CAS #: 852391-15-2, 6.25 μm). The IC50 value was defined as the concentration of compound that produces 50% of the maximal inhibition. The data were fitted using the 4-parameter logistic equation to calculate the IC50 and Ymax values.
SMILES,IC50 [1],IC50 [2]
"CNC(=O)c1n[nH]c2cc(-c3csc(C(=O)NCc4cc(OC(F)(F)F)ccc4F)c3)ccc12 [Example 1, 6-(5-((2-fluoro-5-(trifluoromethoxy)benzyl)carbamoyl)thiophen-3-yl)-N-methyl-1H-indazole-3-carboxamide]",6.8 nM,21 nM
"CNC(=O)c1n[nH]c2cc(-c3csc(C(=O)NCCC(C)c4ccccc4)c3)ccc12 (stereo not drawn) [Example 2, N-methyl-6-(5-((3-phenylbutyl)carbamoyl)thiophen-3-yl)-1H-indazole-3-carboxamide]",6 nM,8.2 nM
"CNC(=O)c1n[nH]c2cc(-c3csc(C(=O)NCC[C@@H](O)c4ccc(Cl)cc4)c3)ccc12 [Example 3, (R)-6-(5-((3-(4-chlorophenyl)-3-hydroxypropyl)carbamoyl)thiophen-3-yl)-N-methyl-1H-indazole-3-carboxamide]",47 nM,200 nM
"CNC(=O)c1n[nH]c2cc(-c3csc(C(=O)NCC[C@H](O)c4ccc(Cl)cc4)c3)ccc12 [Example 4, (S)-6-(5-((3-(4-chlorophenyl)-3-hydroxypropyl)carbamoyl)thiophen-3-yl)-N-methyl-1H-indazole-3-carboxamide]",43 nM,230 nM
"CC(C)NC(=O)c1n[nH]c2cc(-c3csc(C(=O)NCC[C@@H](O)c4ccc(Cl)cc4)c3)ccc12 [Example 5, (R)-6-(5-((3-(4-chlorophenyl)-3-hydroxypropyl)carbamoyl)thiophen-3-yl)-N-isopropyl-1H-indazole-3-carboxamide]",800 nM,1100 nM
"CNC(=O)c1n[nH]c2cc(-c3ccc(C(=O)NCc4cc(OC(F)(F)F)ccc4F)s3)ccc12 [Example 6, 6-(5-((2-fluoro-5-(trifluoromethoxy)benzyl)carbamoyl)thiophen-2-yl)-N-methyl-1H-indazole-3-carboxamide]",31 nM,56 nM
"CNC(=O)c1n[nH]c2cc(-c3ccc(C(=O)NCCC(C)c4ccccc4)s3)ccc12 (stereo not drawn) [Example 7, N-methyl-6-(5-((3-phenylbutyl)carbamoyl)thiophen-2-yl)-1H-indazole-3-carboxamide]",17 nM,3.9 nM
"CNC(=O)c1n[nH]c2cc(-c3ccc(C(=O)NCC[C@H](O)c4ccc(Cl)cc4)s3)ccc12 [Example 8, (S)-6-(5-((3-(4-chlorophenyl)-3-hydroxypropyl)carbamoyl)thiophen-2-yl)-N-methyl-1H-indazole-3-carboxamide]",220 nM,6300 nM
"CNC(=O)c1n[nH]c2cc(-c3cc(C)c(C(=O)NCc4cc(OC(F)(F)F)ccc4F)s3)ccc12 [Example 10, 6-(5-((2-fluoro-5-(trifluoromethoxy)benzyl)carbamoyl)-4-methylthiophen-2-yl)-N-methyl-1H-indazole-3-carboxamide]",2 nM,1 nM
"CNC(=O)c1n[nH]c2cc(-c3cc(C)c(C(=O)NCCC(C)c4ccccc4)s3)ccc12 (stereo not drawn) [Example 11, N-methyl-6-(4-methyl-5-((3-phenylbutyl)carbamoyl)thiophen-2-yl)-1H-indazole-3-carboxamide]",1.8 nM,2 nM
"CNC(=O)c1n[nH]c2cc(-c3cc(C)c(C(=O)NCC[C@@H](O)c4ccc(Cl)cc4)s3)ccc12 [Example 12, (R)-6-(5-((3-(4-chlorophenyl)-3-hydroxypropyl)carbamoyl)-4-methylthiophen-2-yl)-N-methyl-1H-indazole-3-carboxamide]",3.8 nM,11 nM
"CNC(=O)c1n[nH]c2cc(-c3nc(C)c(C(=O)NCc4cc(OC(F)(F)F)ccc4F)s3)ccc12 [Example 14, N-(2-fluoro-5-(trifluoromethoxy)benzyl)-4-methyl-2-(3-(methylcarbamoyl)-1H-indazol-6-yl)thiazole-5-carboxamide]",7 nM,8 nM
"CNC(=O)c1n[nH]c2cc(-c3nc(C)c(C(=O)NCCC(C)c4ccccc4)s3)ccc12 (stereo not drawn) [Example 15, 4-methyl-2-(3-(methylcarbamoyl)-1H-indazol-6-yl)-N-(3-phenylbutyl)thiazole-5-carboxamide]",8.3 nM,44 nM
"CNC(=O)c1n[nH]c2cc(-c3nc(C)c(C(=O)NCC[C@@H](O)c4ccc(Cl)cc4)s3)ccc12 [Example 16, (R)-N-(3-(4-chlorophenyl)-3-hydroxypropyl)-4-methyl-2-(3-(methylcarbamoyl)-1H-indazol-6-yl)thiazole-5-carboxamide]",150 nM,210 nM
"CNC(=O)c1n[nH]c2cc(-c3nc(C)c(C(=O)NCC[C@H](O)c4ccc(Cl)cc4)s3)ccc12 [Example 17, (S)-N-(3-(4-chlorophenyl)-3-hydroxypropyl)-4-methyl-2-(3-(methylcarbamoyl)-1H-indazol-6-yl)thiazole-5-carboxamide]",180 nM,340 nM
